“Also recorded” adds a separate entry of the source. No end group written: not given here.
Assays:
[1] = target: T1, amiloride-sensitive epithelial sodium ion channel (ENaC) (Homo sapiens, UniProt P37088+P51168+P51170); experiment: whole cell patch clamp test with A549 cells (Example 3); type: cell-based; conditions: for effect on the Na+ flow / ENaC (in words) / effect on the Na+ flow (in words): whole cell patch clamp; for effect on the Na+ flow / ENaC (in words): 300 nM in bath solution, n=3
T1 construct: the human alveolar epithelial cell line A549 was used; endogenous in cells; host or cells: A549 (human alveolar epithelial cell line)
T1 sequence (P51168 whole entry): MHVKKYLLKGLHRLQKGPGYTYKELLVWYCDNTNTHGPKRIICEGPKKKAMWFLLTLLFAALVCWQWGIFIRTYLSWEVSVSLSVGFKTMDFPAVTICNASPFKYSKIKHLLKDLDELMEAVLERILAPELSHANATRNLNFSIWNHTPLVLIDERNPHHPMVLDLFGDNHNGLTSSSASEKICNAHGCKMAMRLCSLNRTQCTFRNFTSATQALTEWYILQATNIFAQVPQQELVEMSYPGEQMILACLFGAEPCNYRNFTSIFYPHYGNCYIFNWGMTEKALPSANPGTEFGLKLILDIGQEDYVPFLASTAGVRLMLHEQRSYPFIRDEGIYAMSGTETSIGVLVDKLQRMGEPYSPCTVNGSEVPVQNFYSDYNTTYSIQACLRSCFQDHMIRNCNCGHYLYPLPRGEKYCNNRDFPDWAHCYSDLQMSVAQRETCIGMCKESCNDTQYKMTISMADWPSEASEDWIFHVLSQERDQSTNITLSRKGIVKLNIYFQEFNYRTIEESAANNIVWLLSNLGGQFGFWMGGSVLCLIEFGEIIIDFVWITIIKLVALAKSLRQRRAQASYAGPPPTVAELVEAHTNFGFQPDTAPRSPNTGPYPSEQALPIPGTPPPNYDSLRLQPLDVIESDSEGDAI
T1 sequence (P37088 whole entry): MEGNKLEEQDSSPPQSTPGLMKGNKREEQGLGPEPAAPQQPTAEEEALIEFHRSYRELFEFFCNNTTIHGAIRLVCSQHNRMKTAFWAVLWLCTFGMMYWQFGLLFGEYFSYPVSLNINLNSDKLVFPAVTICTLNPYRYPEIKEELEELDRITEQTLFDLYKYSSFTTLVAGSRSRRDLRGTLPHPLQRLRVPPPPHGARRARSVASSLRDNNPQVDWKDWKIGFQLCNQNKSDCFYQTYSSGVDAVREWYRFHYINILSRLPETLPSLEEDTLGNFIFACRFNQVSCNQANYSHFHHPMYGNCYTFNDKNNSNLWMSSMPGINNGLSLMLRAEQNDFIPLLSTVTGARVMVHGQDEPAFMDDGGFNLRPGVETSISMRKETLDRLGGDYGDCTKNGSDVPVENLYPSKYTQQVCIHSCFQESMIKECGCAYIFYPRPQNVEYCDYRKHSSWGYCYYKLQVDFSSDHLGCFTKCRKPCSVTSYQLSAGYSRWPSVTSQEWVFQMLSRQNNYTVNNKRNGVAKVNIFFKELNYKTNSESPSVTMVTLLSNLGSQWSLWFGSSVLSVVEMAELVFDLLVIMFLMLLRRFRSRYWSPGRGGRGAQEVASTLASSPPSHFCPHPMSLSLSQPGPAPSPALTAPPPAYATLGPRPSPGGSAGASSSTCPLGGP
T1 sequence (P51170 whole entry): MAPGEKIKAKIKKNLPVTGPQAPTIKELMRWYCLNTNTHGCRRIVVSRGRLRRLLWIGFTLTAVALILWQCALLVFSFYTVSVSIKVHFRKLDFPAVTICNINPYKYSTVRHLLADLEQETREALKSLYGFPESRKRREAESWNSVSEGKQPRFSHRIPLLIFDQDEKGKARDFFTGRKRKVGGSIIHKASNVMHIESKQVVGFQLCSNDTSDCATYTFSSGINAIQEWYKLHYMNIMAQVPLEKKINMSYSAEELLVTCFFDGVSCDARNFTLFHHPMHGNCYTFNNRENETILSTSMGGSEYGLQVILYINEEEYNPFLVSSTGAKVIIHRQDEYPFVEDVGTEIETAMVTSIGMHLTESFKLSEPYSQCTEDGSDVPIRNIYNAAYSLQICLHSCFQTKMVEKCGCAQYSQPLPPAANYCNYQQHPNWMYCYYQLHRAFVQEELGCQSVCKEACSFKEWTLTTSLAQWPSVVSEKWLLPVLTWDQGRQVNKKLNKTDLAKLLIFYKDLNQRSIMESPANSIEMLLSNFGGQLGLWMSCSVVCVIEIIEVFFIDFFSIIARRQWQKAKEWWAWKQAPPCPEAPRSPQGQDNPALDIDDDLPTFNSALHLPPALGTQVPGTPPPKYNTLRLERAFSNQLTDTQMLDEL
From the text: According to patent application EP 2 009 023 A1, the so-called transepithelial electrical resistance (TEER) test was used for the screening of anti-lung oedema active ingredient candidates. The “TEER test” is not an established test for the prediction of fluid clearance in lung oedemas (this test can not be found in the relevant scientific literature and also has no relevance with regard to the cells being used (Calu-3 cells) in a model for gas exchange in the human lung). In the present example—in addition to the peptide according to the invention—the peptides […], […] and (cyclized) […] were investigated by means of a whole cell patch clamp assay, an established methodology for the measurement of ion movement over the cell membranes and especially for the measuring of the sodium transport over the cell membrane of alveolar epithelial cells (Eaton et al., Fed. Proc. 45 (1986), 2707; Hamill et al., Pflugers Arch. 391 (1981) 85-100. Here it was to be tested whether or not the peptides can activate the amiloride-sensitive epithelial sodium flow in lung cells.
The whole cell patch clamp test using A549 cells took place as described in Hazemi et al. (J. Med. Chem. 53 (2010), 8021-8029). […] In cases where an increase of the flow after addition of a given peptide was observed, an amiloride solution (to […] final concentration) was added to the bath solution—after the flow reached a stationary state —, in order to differentiate the amiloride-sensitive from the amiloride-insensitive flow. The amiloride-sensitive flow was then calculated by subtracting the flow value after addition of amiloride (amiloride-insensitive) from the flow value of the stationary state before the addition of amiloride. For each peptide, three experiments were carried out in different A549 cells (n=3).

[2] = system: interleukin-6 (IL-6) secretion in human full blood; experiment: ex vivo release of interleukin-6 from fresh human full blood cultures (ELISA); type: cell-based; conditions: for Concentration of IL-6: human full blood, 24 hours, n=5
Protocol: In this study, fresh full blood was used; this is a recognized prediction model for the assessment of the inflammatory reaction in vivo.
The aim of this study was to determine the pro-inflammatory signal capacity of the peptide SEQ ID NO: 1.
Full blood (FB) cultures were carried out by pipetting 1 ml FB in depressions of 24-well plates. In each experiment, unstimulated and stimulated control cultures were included.
If possible, the substances and stimulants to be examined were always used in the same volume in each well in a given experiment, which is not greater than 10% of the total volume in a well. Unstimulated controls took place with PBS. Volume adjustment and dilutions for different treatments were likewise carried out with PBS.
The content of each well was mixed and the plates were incubated at 37° C. and 5% CO2 for 24 hours. After incubation, the content of each well was transferred into a fresh 1.5 ml microtube and centrifuged at 8000 to 9000×g for 15 minutes. The supernatant of each sample was divided individually to two 1.5 ml reaction vessels and stored at −20° C. until use.
Interleukin-6 was quantified by means of a specific ELISA (Human IL-6 ELISA-Set, BD Biosciences, Cat. No. 555220) using an anti-human-IL-6 antibody as capture antibody, a biotinylated anti-human IL-6 detection antibody, avidin horseradish peroxidise conjugate as enzyme reagent and recombinant IL-6 as standard. Absorption measurement at 450 nm was carried out with the Packard Fusion reader.
The results of each plate were stored and evaluated with the fusion data analysis software. […]

[3] = system: pulmonary form of altitude sickness in rats; experiment: experimental rat model of the pulmonary form of altitude sickness (physical activity under reduced oxygen and air pressure); type: in vivo, rat (Sprague Dawley)
From the text: Physical exertion under conditions of reduced oxygen and air pressure, such as occur at high altitudes, are the 2 main factors which lead to the development of the pulmonary form of altitude sickness. Therefore, the selected rat model, in which the rats carried out physical activity under conditions of reduced oxygen and reduced air pressure, simulates a physically strenuous ascent to high altitudes. This takes place without carrying out a prior acclimatization. This corresponds to the scenario such as is to be found in the case of mountaineers who suffer from the pulmonary form of altitude sickness at high altitudes. In the model which was used, the rats develop the typical symptoms for the pulmonary form of altitude sickness, as is to be read in the “intensity of the pulmonary form of altitude sickness”, the increased protein concentration in the lung fluid and the histological appearance of the lung tissue. It is further to be noted that the lung damage in this model is not caused by administration of endotoxins, microbes or other agents which are damaging to the lung. […] Also, no specific strain of rat was used for this experiment. Therefore, this rat model is well suited to investigate a medicament for the treatment of the pulmonary form of altitude sickness.
Laboratory rats (Sprague Dawley rats) carried out physical activity through external stimulation for 48 hours under conditions of reduced oxygen and air pressure. Here, the air pressure was reduced to a value below 430 Torr, so that a height of over 4500 m was simulated. A prior acclimatization of the rats to the height of over 4500 m was not carried out. During this time, the rats were able to undertake a 15-20 minute pause every 4 hours in order to take in water and food. […] The lungs were then removed and the intensity of the pulmonary form of altitude sickness was determined (FIG. 1), the protein content in the lung fluid was determined (FIG. 2) and the histological appearance of the lung tissue was determined (FIG. 3).

[4] = target: T2, amiloride-sensitive sodium ion channel (ENaC) (Homo sapiens, UniProt P37088+P51168+P51170); experiment: whole cell patch clamp on A549 cells, amiloride-sensitive sodium ion flow, EC50 (Example 4); type: cell-based
T2 construct: Macroscopic sodium ion flows were derived from human lung epithelial cells A549; endogenous in cells; host or cells: A549 (human lung epithelial cells)
T2 sequence (P37088 whole entry): as the sequence (P37088 whole entry) above
T2 sequence (P51168 whole entry): as the sequence (P51168 whole entry) above
T2 sequence (P51170 whole entry): as the sequence (P51170 whole entry) above
From the text: The activity of the individual peptides is indicated as EC50 (in nM).

[5] = intratracheal 100, 300 and 600 μg/rat (especially 300 μg), 4 hours after administration

## QRETPEGAEAKPWY
[1]
  effect on the Na+ flow / ENaC (in words): no activating effect; also recorded: no effect on the flow; also recorded: none of the other three peptides had an influence on the flow

## C[C@@H]1NC(=O)CNC(=O)[C@H](CCC(=O)O)NC(=O)[C@@H]2CCCN2C(=O)[C@H]([C@@H](C)O)NC(=O)[C@H](CCC(=O)O)NC(=O)[C@H](CCCNC(=N)N)NC(=O)[C@H](CCC(N)=O)NC(=O)CNC(=O)[C@@H](N)CSSC[C@@H](C(=O)O)NC(=O)[C@H](Cc2ccc(O)cc2)NC(=O)[C@H](Cc2c[nH]c3ccccc23)NC(=O)[C@@H]2CCCN2C(=O)[C@H](CCCCN)NC(=O)[C@H](C)NC(=O)[C@H](CCC(=O)O)NC1=O [SEQ ID NO: 1]
[2]; human full blood cultures of five healthy donors, all tested concentrations (10 μg/ml to 1 ng/ml)
  induction of IL-6 secretion (in words): did not induce any detectable amount of IL-6 secretion; also recorded: induced no detectable level of IL-6
[2]; human full blood ex vivo model
  TNF receptor binding activity (concluded from absent IL-6 release): does not have TNF receptor binding activity
[2]
  Concentration of IL-6: less than 0.5 pg/ml
[2]; test concentration 1 ng/ml
  Concentration of IL-6: less than 0.5 pg/ml
[2]; test concentration 3 ng/ml
  Concentration of IL-6: less than 0.5 pg/ml
[2]; test concentration 1 mg/ml
  Concentration of IL-6: less than 0.5 pg/ml
[1]; 240 nM, increased from 50 pA, flow minus amiloride-insensitive flow
  amiloride-sensitive Na+ flow after addition of the peptide: 1037 pA
[1]; 240 nM in bath solution
  effect on the Na+ flow (in words): induced an increase of the sodium flow over that of the control value
[1]; 240 nM in bath solution, listed as AP301
  effect on the Na+ flow (in words): immediate intensifying effect
[1]; whole cell, clamped at -100 mV, 240 nM in bath solution, control value 86 pA±5 pA
  active Na+ flow after addition of the peptide (maximum): 1073±15 pA
[3]; 4 hours after intratracheal administration
  histological appearance of lung tissue: comparable with healthy lung tissue of the control rats
[3]; [5]
  intensity of the pulmonary form of altitude sickness: led to reduction of the intensity of the pulmonary form of altitude sickness
  protein concentration in the lung fluid: led to reduction of the protein concentration in the lung fluid

## TKPIELGPDEPKAV
[1]
  effect on the Na+ flow / ENaC (in words): no activating effect; also recorded: no effect on the flow; also recorded: none of the other three peptides had an influence on the flow

## CGQREAPAGAAAKPWYC [SEQ ID NO: 19]
[4]; A549 cells, whole cell patch clamp, concentration at 50% of maximum increase of flow
  EC50 (nM), cellular amiloride-sensitive sodium ion flow: No activity
[4]; A549 lung cells
  activity on the amiloride-sensitive sodium ion channel (in words): not active

## N=C(N)NC(=O)c1nc(Cl)c(N)nc1N [amiloride]
[1]; after AP301 240 nM, amiloride 100 mM in bath solution
  Na+ flow after subsequent addition of amiloride: 36 pA

## CGTKPIELGPDEPKAVC (not fully specified (bridges); also: cyclic)
[1]
  effect on the Na+ flow / ENaC (in words): no activating effect; also recorded: no effect on the flow; also recorded: none of the other three peptides had an influence on the flow

— patent US9802985B2, “Pharmaceutical composition for treatment of the pulmonary form of altitude sickness caused by lack of oxygen and reduced air pressure” (APEPTICO FORSCHUNG UND E[…], priority 2012, dated 2017)
